Experimental data reported in patent US20120329872A1, “Ready-To-Eat Feed For Domestic Pets” (Alzchem Trostberg GmbH, priority 2006, published 2012).

Experiments:
[1] = Storage stability in water at pH 5 over 60 days (comparable to canned feeds); assay type: physicochemical
[2] = dogs, oral, about 40 mg/kg daily for several weeks; cited from earlier work
[3] = Stability in water (pH 7) heated in an autoclave to 160° C. for 30 minutes (model of feed extrusion); assay type: physicochemical
Description: For this purpose a model system was used for the extrusion of a moist feed paste at 160° C. […] Subsequently the content of creatine and guanidinoacetic acid was determined.

[4] = 200 patients, 30 mg GAA/kg daily for one year, in combination with betaine; cited from earlier work
Staphylococcus aureus = conditions: bacterial infections (Staphylococcus aureus); cited from earlier work

content recovered after storage ([1]; water pH 5, after 60 days) | content remaining, of the original content ([3]; water pH 7, 30 minutes at 160° C., autoclave) | degradation after storage ([1]; water pH 5, after 60 days) | content remaining, of the original content ([3]; 0.5 h, pH 7) | Structure (SMILES) | body weight change [2] | nitrogen balance [2] | side effects [4] | storage stability compared with creatine (FIG. 2) ([1]; water pH 5, over 60 days) | antibacterial action in animal experiments (Staphylococcus aureus)
87% | less than 20% | – | – | CN(CC(=O)O)C(=N)N [creatine, reference compound] | considerable increase in weight | positive nitrogen balance | – | – | –
– | – | no degradation | more than 80% | N=C(N)NCC(=O)O [guanidinoacetic acid] | – | – | not observed | significantly higher storage stability than creatine | successfully used against bacterial infections
